The assay concerns the target LSD1 (Homo sapiens, UniProt O60341). The assay can be described thus: LSD1 fluorescence coupling enzyme assay (HRP/Amplex Red), 10-dose IC50 mode. Particulars: 10-dose IC50 mode, 3-fold serial dilution in duplicate starting at 100 μM; 10 μM histone H3(1-21)K4me2 peptide substrate; read-out: RB LSD1 ave. It is filed as biochemical. The protocol: Compounds were tested in a 10-dose IC50 mode fluorescence coupling enzyme assay with 3-fold serial dilution in duplicate starting at 100 μM. The production of FAD-dependent H2O2 as a result of demethylase activity of LSD1 on 10 μM histone H3(1-21)K4me2 peptide substrate was measured by coupling with HRP and Amplex Red to yield resorufin (fluorescence measured at Ex/Em=535/590 nm on EnVision, Perkin Elmer).
Turning to `CN1CCN(c2nc(CCCN[C@@H]3C[C@H]3c3ccc(F)cc3)c[nH]c2=O)CC1` [Example 2, 5-[3-([(1R,2S)-2-(4-fluorophenyl)cyclopropyl]amino)propyl] 3-[4-methylpiperazin-1-yl]-pyrazin-2(1H)-one], the IC50 amounted to 28 nM. The figure for `CS(=O)(=O)N1CCN(c2nc(CCCN[C@@H]3C[C@H]3c3ccc(F)cc3)c[nH]c2=O)CC1` [Example 3, 5-[3-([(1R,2S)-2-(4-fluorophenyl)cyclopropyl]amino)propyl]-3-[4-(methylsulfonyl)piperazin-1-yl]pyrazin-2(1H)-one] is 7 nM; for `O=c1[nH]cc(CCCN[C@@H]2C[C@H]2c2ccc(F)cc2)nc1N1CCOCC1` [Example 4, 5-[3-([(1R,2S)-2-(4-fluorophenyl)cyclopropyl]amino)propyl]-3-morpholinopyrazin-2(1H)-one] it is 7 nM. With `O=c1[nH]cc(CCCN[C@@H]2C[C@H]2c2ccc(F)cc2)nc1N1CCC1` [Example 5, 3-[Azetidin-1-yl]-5-[3-([(1R,2S)-2-(4-fluorophenyl)cyclopropyl]amino)propyl]-pyrazin-2(1H)-one] the figure was 12 nM.

Turning to `O=c1c(N2CCS(=O)(=O)CC2)nc(CCCN[C@@H]2C[C@H]2c2ccc(F)cc2)cn1C1CC1` [Example 8, 1-Cyclopropyl-3-[1,1-dioxidothiomorpholino]-5-[3-([(1R,2S)-2-(4-fluorophenyl)cyclopropyl]amino)propyl]pyrazin-2(1H)-one], the IC50 came to 48 nM. With `O=c1[nH]cc(CCCN[C@@H]2C[C@H]2c2ccccc2)nc1N1CCS(=O)(=O)CC1` [Example 9, 3-(1,1-Dioxidothiomorpholino)-5-(3-(((1R,2S)-2-phenylcyclopropyl)amino)propyl)pyrazin-2(1H)-one] the figure was 6 nM; with `O=C(O)C1CCN(c2nc(CCCN[C@@H]3C[C@H]3c3ccc(F)cc3)c[nH]c2=O)CC1` [Example 10, 1-[6-(3-[([1R,2S]-2-[4-fluorophenyl]cyclopropyl)amino]propyl)-3-oxo-3,4-dihydropyrazin-2-yl]piperidine-4-carboxylic acid], 300 nM. With `CN(C)S(=O)(=O)c1ccc(-n2cc(CCCN[C@@H]3C[C@H]3c3ccc(F)cc3)nc(N3CCNCC3)c2=O)cc1` [Example 14, 4-[5-(3-[([1R,2S]-2-[4-fluorophenyl]cyclopropyl)amino]propyl)-2-oxo-3-(piperazin-1-yl)pyrazin-1(2H)-yl]-N,N-dimethylbenzenesulfonamide] the figure was 10 nM; with `O=c1c(N2CCNCC2)nc(CCCN[C@@H]2C[C@H]2c2ccc(F)cc2)cn1-c1ccc(F)cc1` [Example 26, 1-[4-Fluorophenyl]-5-[3-([(1R,2S)-2-(4-fluorophenyl)cyclopropyl]amino)propyl]-3-(piperazin-1-yl)pyrazin-2(1H)-one], 4 nM; with `O=c1c(N2CCNCC2)nc(CCCN[C@@H]2C[C@H]2c2ccc(F)cc2)cn1-c1ccc(-n2ccnn2)cc1` [Example 27, 1-[4-(1H-1,2,3-triazol-1-yl)phenyl]-5-[3-([(1R,2S)-2-(4-fluorophenyl)-cyclopropyl]amino)propyl]-3-[piperazin-1-yl]pyrazin-2(1H)-one], 17 nM. With `O=c1c(N2CCNCC2)nc(CCCN[C@@H]2C[C@H]2c2ccc(F)cc2)cn1-c1ccc(-c2ncccn2)cc1` [Example 28, 5-[3-([(1R,2S)-2-(4-fluorophenyl)cyclopropyl]amino)propyl]-3-[piperazin-1-yl]-1-[4-(pyrimidin-2-yl)phenyl]pyrazin-2(1H)-one] the figure was 6 nM. As to `O=c1c(N2CCNCC2)nc(CCCN[C@@H]2C[C@H]2c2ccc(F)cc2)cn1-c1ccc(-c2cccnn2)cc1` [Example 29, 5-[3-([(1R,2S)-2-(4-fluorophenyl)cyclopropyl]amino)propyl]-3-[piperazin-1-yl]-1-[4-(pyridazin-3-yl)phenyl]pyrazin-2(1H)-one], the IC50 is 2 nM. Turning to `CN(C)S(=O)(=O)c1ccc(-n2cc(CCCN[C@@H]3C[C@H]3c3ccc(F)cc3)nc(N3CCN(S(C)(=O)=O)CC3)c2=O)cc1` [Example 30, 4-[5-(3-[[(1R,2S)-2-(4-Fluorophenyl)cyclopropyl]amino]propyl)-3-(4-methanesulfonylpiperazin-1-yl)-2(1H)-oxopyrazin-1-yl]-N,N-dimethylbenzene-1-sulfonamide], the IC50 is 2 nM. With `O=c1[nH]cc(CCCN[C@@H]2C[C@H]2c2ccc(F)cc2)nc1N1CCNCC1` [Example 31, 5-[3-([(1R,2S)-2-(4-fluorophenyl)cyclopropyl]amino)propyl]-3-[piperazin-1-yl]pyrazin-2(1H)-one] the figure was 4 nM; with `O=c1[nH]cc(CCCN[C@@H]2C[C@H]2c2ccc(F)cc2)nc1N1CCS(=O)(=O)CC1` [Example 32, 3-[1,1-Dioxidothiomorpholino]-5-[3-([(1R,2S)-2-(4-fluorophenyl)cyclopropyl]amino)propyl]pyrazin-2(1H)-one], 9 nM; with `O=c1c(-c2cn[nH]c2)nc(CCCN[C@@H]2C[C@H]2c2ccc(F)cc2)cn1-c1ccc(F)cc1` [Example 36, 1-[4-fluorophenyl]-5-[3-([(1R,2S)-2-(4-fluorophenyl)cyclopropyl]amino)propyl]-3-[1H-pyrazol-4-yl]pyrazin-2(1H)-one], 13 nM. The figure for `CN1CCN(c2nc(CCCN[C@@H]3C[C@H]3c3ccc(F)cc3)c[nH]c2=O)CC1=O` [Example 41, 5-[3-([(1R,2S)-2-(4-fluorophenyl)cyclopropyl]amino)propyl]-3-[4-methyl-3-oxopiperazin-1-yl]pyrazin-2(1H)-one] is 24 nM. `N#Cc1ccc(-n2cc(CCCN[C@@H]3C[C@H]3c3ccc(F)cc3)nc(N3CC4(COC4)C3)c2=O)cc1` [Example 44, 4-[5-(3-[([1R,2S]-2-[4-fluorophenyl]cyclopropyl)amino]propyl)-2-oxo-3-(2-oxa-6-azaspiro[3.3]heptan-6-yl)pyrazin-1(2H)-yl]benzonitrile]: the IC50 worked out at 6 nM.

Consider `O=C1CN(c2nc(CCCN[C@@H]3C[C@H]3c3ccc(F)cc3)cn(Cc3ccccc3)c2=O)CCN1` [Example 46, 1-benzyl-5-[3-([(1R,2S)-2-(4-fluorophenyl)cyclopropyl]amino)propyl]-3-[3-oxopiperazin-1-yl]pyrazin-2(1H)-one], for which the IC50 was 7 nM.

Consider `O=C1CN(c2nc(CCCN[C@@H]3C[C@H]3c3ccc(F)cc3)c[nH]c2=O)CCN1` [Example 48, 5-[3-([(1R,2S)-2-(4-fluorophenyl)cyclopropyl]amino)propyl]-3-[3-oxopiperazin-1-yl]pyrazin-2(1H)-one], for which the IC50 is 15 nM.

Values taken from patent US11932629B2, “KDM1A inhibitors for the treatment of disease” (Imago Biosciences, Inc., priority 2018, dated 2024).
